In patent US20250129101A1, “Compound, Pharmaceutical Composition Comprising the Same and Method for Treating Cancer Using the Same” (NATIONAL TSING HUA UNIVERSITY, priority 2023, published 2025):

Assays:
KIF2C = target: T1, KIF2C (Homo sapiens, UniProt Q99661); experiment: In vitro validation: KIF2C kinesin activity, malachite green-based phosphate colorimetric assay; format: biochemical; conditions: for EC50: concentration that inhibits 50% of KIF2C activity
T1 construct: KIF2C (216-598 a.a.); 6xHis (C); made in house; host or cells: E. coli BL21 (DE3), pET-28a
Protocol: (§1) The in vitro validation was performed by measuring KIF2C kinesin activity using malachite green-based phosphate colorimetric assay (BioVision). […] The microtubules from porcine brain tubulin (Cytoskeleton) or purified from HEK293 cells in Free-style medium (293Fs) were dissolved in the BRB80 buffer (80 mM PIPES pH 6.8, 1 mM EGTA, 1 mM MgCl2, 1 mM GTP, 1 mM DTT, and 10% DMSO) at 37° C. for 2 hr. Phosphates released from kinesin-mediated ATP hydrolysis was measured by adding 30 μL of the phosphate colorimetric reagent (BioVision), incubated for 10 min, and then measured with absorbance at 650 nm. […] The cell validation was performed by measuring cytotoxicity in MDA-MB-231 cells. The cells were cultured in a 96-well plate at a confluence of 2000 cells/well with indicates compounds for specific days. When the time was up, the culture medium in the plate was aspirated and replaced with a prepared CellTiter-Glo reagent (Promega)/DMEM mixture (1:1 mix of CellTiter-Glo reagent and serum-supplemented DMEM). After incubation for 10 min, the luminescence was measured with an ELISA plate reader to determine the cell viability.
In vitro kinesin activity was measured using malachite green-based phosphate colorimetric assay (BioVision). […] The microtubules from porcine brain tubulin (Cytoskeleton) or purified from HEK293 cells in Free-style medium (293Fs) were dissolved in the BRB80 buffer (80 mM PIPES pH 6.8, 1 mM EGTA, 1 mM MgCl2, 1 mM GTP, 1 mM DTT, and 10% DMSO) at 37° C. for 2 hr. Phosphates released from kinesin-mediated ATP hydrolysis was measured by adding 30 μL of the phosphate colorimetric reagent (BioVision), incubated for 10 min, and then measured with absorbance at 650 nm.
Constructs of sN+M regions of KIF2C (216-598 a.a.), KIF2A (181-562 a.a.) and KIF2B (171-553 a.a.) with C-terminal 6×His tag were subcloned into pET-28a vector and expressed in BL21 (DE3) E. coli cells (Novartis) cultured in Luria-Bertani medium supplemented with 50 ug/mL kanamycin at 37° C. After induction with 0.8 mM IPTG for 18 hr at 20° C., the cells were pelleted by centrifugation at 6000 rpm for 30 min at 10° C. The collected pellets were resuspended in 30 mL of buffer A (20 mM Tris-HCl pH 7.5, 500 mM NaCl, 10 mM imidazole, 1% CHAPS, and 1 mM PMSF) and next subjected to a high-pressure homogenizer (EmulsiFlex-C3) for cell lysis. After removing the cell debris by centrifugation at 13000 rpm for 30 min at 10° C., the recombinant Kinesin-13 in the supernatant was purified using nickel affinity chromatography. Firstly, the supernatant was applied to the Ni-NTA column (GE Healthcare) pre-equilibrated with buffer A. Secondly, the column was washed with 10× column volumes of buffer A to remove the unwanted proteins. The washed column was then eluted with 10× column volumes of buffer containing increasing concentrations of imidazole (40, 100, 300, 1000 mM), and the majority of the recombinant Kinesin-13 protein was eventually obtained in a fraction of 300 mM imidazole. The fractions containing the recombinant Kinesin-13 were subsequently concentrated in the buffer B (20 mM Tris-HCl pH 7.5, 10 mM imidazole, 50 mM NaCl, 2 mM DTT) using an Amicon® Ultra filter (Millipore) and subjected to cation exchange column (Capto S, GE Healthcare) for further purification. The recombinant Kinesin-13 was then eluted in elution buffer (20 mM Tris-HCl pH 7.5 and 2 mM DTT) containing 400 mM of NaCl and stored at −80° C. for long-term storage.

MDA-MB-231 cells = experiment: Cell validation: cytotoxicity in MDA-MB-231 cells (CellTiter-Glo); format: cell-based; conditions: for IC50: Homo sapiens; for IC50 / Cell validation (IC50): cytotoxicity in MDA-MB-231 cells
Protocol: as §1
The cancer cells were cultured in a 96-well plate at a confluence of 1000-2000 cells/well with indicated drugs for specific days. When the time was up, the culture medium in the plate was aspirated and replaced with a prepared CellTiter-Glo reagent/DMEM mixture (1:1 mix of CellTiter-Glo reagent and serum-supplemented DMEM). After incubation for 10 min, the luminescence (proportional to the number of living cells) was measured with an ELISA plate reader to determine the cell viability.

T1 sequence (Q99661 216-598): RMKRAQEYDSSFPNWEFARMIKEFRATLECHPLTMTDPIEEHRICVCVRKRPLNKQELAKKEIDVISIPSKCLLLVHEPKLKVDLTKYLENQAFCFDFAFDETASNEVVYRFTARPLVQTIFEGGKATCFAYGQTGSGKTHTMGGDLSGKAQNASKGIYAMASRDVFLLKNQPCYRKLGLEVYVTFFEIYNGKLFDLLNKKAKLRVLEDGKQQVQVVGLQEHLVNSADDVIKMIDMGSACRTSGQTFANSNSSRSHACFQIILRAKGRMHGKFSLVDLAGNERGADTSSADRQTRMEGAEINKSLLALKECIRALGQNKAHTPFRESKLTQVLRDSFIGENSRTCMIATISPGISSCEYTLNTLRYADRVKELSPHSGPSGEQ

| EC50 (KIF2C) [µM] | SMILES | IC50 (MDA-MB-231 cells) [µM] | cytotoxicity on MDA-MB-231 cells (in words) (MDA-MB-231 cells; 72 hr) | Cell validation (IC50) (MDA-MB-231 cells) | KIF2C activity in reaction containing nocodazole (in words) (KIF2C; 1 μM nocodazole) |
| --- | --- | --- | --- | --- | --- |
| > 100 | CC1=C(C(=O)OC(C)C)C(c2ccc(Cl)cc2)n2c(s/c(=C\c3ccc(F)cc3)c2=O)=N1 (centres unmarked) [2S0 (22), isopropyl (Z)-5-(4-chlorophenyl)-2-(4-fluorobenzylidene)-7-methyl-3-oxo-2,3-dihydro-5H-thiazolo[3,2-a]pyrimidine-6-carboxylate] | > 50 |  |  |  |
| > 100 | CC1=C(C(=O)OC(C)C)C(c2ccc(Cl)cc2)n2c(s/c(=C\c3ccc(OCC(N)=O)cc3)c2=O)=N1 (centres unmarked) [8S0 (15), isopropyl (Z)-2-(4-(2-amino-2-oxoethoxy)benzylidene)-5-(4-chlorophenyl)-7-methyl-3-oxo-2,3-dihydro-5H-thiazolo[3,2-a]pyrimidine-6-carboxylate] | > 50 |  |  |  |
| < 50 | CC1=C(C(=O)OC(C)C)C(c2ccc(F)cc2)n2c(s/c(=C\c3ccc(OCC(=O)O)cc3)c2=O)=N1 (centres unmarked) [9S0 (32), (4-(((2Z)-5-(4-fluorophenyl)-7-methyl-3-oxo-6-((propan-2-yloxy)carbonyl)-5H-[1,3]thiazolo[3,2-a]pyrimidin-2(3H)-ylidene)methyl)phenoxy)acetic acid] | > 50 |  |  |  |
| > 100 | CNC(=O)COc1ccc(/C=c2\sc3n(c2=O)C(c2ccc(F)cc2)C(C(=O)OC(C)C)=C(C)N=3)cc1 (centres unmarked) [10S0 (35), isopropyl (Z)-5-(4-fluorophenyl)-7-methyl-2-(4-(2-(methylamino)-2-oxoethoxy)benzylidene)-3-oxo-2,3-dihydro-5H-thiazolo[3,2-a]pyrimidine-6-carboxylate] | > 50 |  |  |  |
| > 100 | CC1=C(C(=O)OC(C)C)C(c2cccc(Cl)c2)n2c(s/c(=C\c3ccc(OCC(=O)O)cc3)c2=O)=N1 (centres unmarked) [15S0 (66), (Z)-2-(4-((5-(3-chlorophenyl)-6-(isopropoxycarbonyl)-7-methyl-3-oxo-5H-thiazolo[3,2-a]pyrimidin-2(3H)-ylidene)methyl)phenoxy)acetic acid] | > 50 |  |  |  |
| > 100 | CC1=C(C(=O)OC(C)C)C(c2ccc(C)cc2)n2c(s/c(=C\c3ccc(OCC(=O)O)cc3)c2=O)=N1 (centres unmarked) [17S0 (50), (Z)-2-(4-((6-(isopropoxycarbonyl)-7-methyl-3-oxo-5-(p-tolyl)-5H-thiazolo[3,2-a]pyrimidin-2(3H)-ylidene)methyl)phenoxy)acetic acid] | > 50 |  |  |  |

More lines, now with the values behind:

| SMILES | EC50 (KIF2C) [µM] | IC50 (MDA-MB-231 cells) [µM] | cytotoxicity on MDA-MB-231 cells (in words) (MDA-MB-231 cells; 72 hr) | Cell validation (IC50) (MDA-MB-231 cells) | KIF2C activity in reaction containing nocodazole (in words) (KIF2C; 1 μM nocodazole) |
| --- | --- | --- | --- | --- | --- |
| COc1ccc(/C=c2\sc3n(c2=O)C(c2ccc(Cl)cc2)C(C(=O)OC(C)C)=C(C)N=3)cc1 (centres unmarked) [3S0 (23), isopropyl (Z)-5-(4-chlorophenyl)-2-(4-methoxybenzylidene)-7-methyl-3-oxo-2,3-dihydro-5H-thiazolo[3,2-a]pyrimidine-6-carboxylate] | > 100 | > 50 |  |  |  |
| CCOC(=O)COc1ccc(/C=c2\sc3n(c2=O)C(c2ccc(Cl)cc2)C(C(=O)OC(C)C)=C(C)N=3)cc1 (centres unmarked) [4S0 (26), 1-methylethyl 5-(4-chlorophenyl)-2-[[4-(2-ethoxy-2-oxoethoxy)phenyl]methylene]-2,3-dihydro-7-methyl-3-oxo-5H-thiazolo[3,2-a]pyrimidine-6-carboxylate] | > 100 | > 50 |  |  |  |
| CC1=C(C(=O)OC(C)C)C(c2ccc(Cl)cc2)n2c(s/c(=C\c3ccc(OCC(=O)N4CCN(C)CC4)cc3)c2=O)=N1 (centres unmarked) [6S0 (13), propan-2-yl (2Z)-5-(4-chlorophenyl)-7-methyl-2-(4-(2-(4-methylpiperazin-1-yl)-2-oxoethoxy)benzylidene)-3-oxo-2,3-dihydro-5H-[1,3]thiazolo[3,2-a]pyrimidine-6-carboxylate] | 50 to 100 |  | showed cytotoxicity | + + |  |
| CC1=C(C(=O)OC(C)C)C(c2ccc(Cl)cc2)n2c(s/c(=C\c3ccc(OCC(=O)N4CCN(C(C)C)CC4)cc3)c2=O)=N1 (centres unmarked) [11S0 (16), isopropyl (Z)-5-(4-chlorophenyl)-2-(4-(2-(4-isopropylpiperazin-1-yl)-2-oxoethoxy)benzylidene)-7-methyl-3-oxo-2,3-dihydro-5H-thiazolo[3,2-a]pyrimidine-6-carboxylate] | > 100 |  |  | + + |  |
| CCOC(=O)C1=C(C)N=c2s/c(=C\c3ccc(OCC(=O)O)cc3)c(=O)n2C1c1ccc(Cl)cc1 (centres unmarked) [12S0 (79), (Z)-2-(4-((5-(4-chlorophenyl)-6-(ethoxycarbonyl)-7-methyl-3-oxo-5H-thiazolo[3,2-a]pyrimidin-2(3H)-ylidene)methyl)phenoxy)acetic acid] | < 20 | > 50 |  |  |  |
| COC(=O)C1=C(C)N=c2s/c(=C\c3ccc(OCC(=O)O)cc3)c(=O)n2C1c1ccc(Cl)cc1 (centres unmarked) [14S0 (78), (Z)-2-(4-((5-(4-chlorophenyl)-6-(methoxycarbonyl)-7-methyl-3-oxo-5H-thiazolo[3,2-a]pyrimidin-2(3H)-ylidene)methyl)phenoxy)acetic acid] | 50 to 100 | > 50 |  |  |  |
| CCN1CCN(C(=O)COc2ccc(/C=c3\sc4n(c3=O)C(c3cccc(Cl)c3)C(C(=O)OC(C)C)=C(C)N=4)cc2)CC1 (centres unmarked) [16S0 (67), isopropyl (Z)-5-(3-chlorophenyl)-2-(4-(2-(4-ethylpiperazin-1-yl)-2-oxoethoxy)benzylidene)-7-methyl-3-oxo-2,3-dihydro-5H-thiazolo[3,2-a]pyrimidine-6-carboxylate] | 50 to 100 |  |  | + + |  |
| CCN1CCN(C(=O)COc2ccc(/C=c3\sc4n(c3=O)C(c3ccc(C)cc3)C(C(=O)OC(C)C)=C(C)N=4)cc2)CC1 (centres unmarked) [18S0 (51), isopropyl (Z)-2-(4-(2-(4-ethylpiperazin-1-yl)-2-oxoethoxy)benzylidene)-7-methyl-3-oxo-5-(p-tolyl)-2,3-dihydro-5H-thiazolo[3,2-a]pyrimidine-6-carboxylate] | 50 to 100 |  |  | + + |  |
| CC1=C(C(=O)OC(C)C)C(c2ccc(N(C)C)cc2)n2c(s/c(=C\c3ccc(OCC(=O)N4CCN(C)CC4)cc3)c2=O)=N1 (centres unmarked) [19S0 (56), isopropyl (Z)-5-(4-(dimethylamino)phenyl)-7-methyl-2-(4-(2-(4-methylpiperazin-1-yl)-2-oxoethoxy)benzylidene)-3-oxo-2,3-dihydro-5H-thiazolo[3,2-a]pyrimidine-6-carboxylate] | < 50 |  |  | + + |  |
| CC1=C(C(=O)OC(C)C)C(c2ccc(Br)cc2)n2c(s/c(=C\c3ccc(OCC(=O)N4CCN(C)CC4)cc3)c2=O)=N1 (centres unmarked) [20S0 (41), isopropyl (Z)-5-(4-bromophenyl)-7-methyl-2-(4-(2-(4-methylpiperazin-1-yl)-2-oxoethoxy)benzylidene)-3-oxo-2,3-dihydro-5H-thiazolo[3,2-a]pyrimidine-6-carboxylate] | 50 to 100 |  |  | + + + |  |
| CC1=C(C(=O)OC(C)C)C(c2ccc(Cl)cc2)n2c(s/c(=C\c3ccc(OCC(=O)N4CCC(N5CCN(C)CC5)CC4)cc3)c2=O)=N1.O=C(O)/C=C\C(=O)O (centres unmarked) [24S9 (135), isopropyl (Z)-5-(4-chlorophenyl)-7-methyl-2-(4-(2-(4-(4-methylpiperazin-1-yl)piperidin-1-yl)-2-oxoethoxy)benzylidene)-3-oxo-2,3-dihydro-5H-thiazolo[3,2-a]pyrimidine-6-carboxylate maleate] |  |  |  | + + + + |  |
| COC(=O)Nc1nc2ccc(C(=O)c3cccs3)cc2[nH]1 [nocodazole, reference compound] |  |  |  |  | largely reduced |
